From patent US20230285374A1, “THERAPEUTIC METHODS USING VADADUSTAT” (Akebia Therapeutics, Inc., priority 2019, published 2023)

System: subjects with anemia and Hemodialysis-Dependent Chronic Kidney Disease (HD-CKD) converting from ESA
Experiment: Phase 3 randomized, double-blinded, active-controlled study in Hemodialysis-Dependent CKD (HD-CKD), Compound 1 vs darbepoetin alfa, 52 weeks
Format: in vivo, human
Source text: This example describes a phase 3 randomized, double-blinded, active-controlled study to evaluate the efficacy and safety of oral Compound 1 for the maintenance treatment of anemia in subjects with Hemodialysis-Dependent Chronic Kidney Disease (HD-CKD) in approximately 300 subjects. Efficacy and safety of Compound 1 was compared with darbepoetin alfa for the maintenance treatment of anemia in subjects with DD-CKD after conversion from current ESA therapy.
Subjects deemed eligible for into the study included those who: • Be at least 20 years of age, inclusive; • Have diagnosis of Chronic Kidney Disease; • Be receiving hemodialysis or hemodialysis filtration at least three (3) times per week for ≥12 weeks before screening; • Be receiving the same formulation of ESA using the same administration route and the same dose interval (the dose interval should be the one described in the package insert for the ESA formulation) within 8 weeks prior to the first day of the screening period, using the dosages described below: Epoetin alfa and epoetin beta and kappa: ≥9,000 IU every weeks Darbepoetin alfa: ≥60 μg every weeks Epoetin beta pegol: ≥250 μg every 4 weeks • Have a mean of the most recent Hb levels at screening in the range of ≥9.5 to ≥12.0 g/dL. • Have a difference of <1.5 g/dL in Hb for the latest two tests in the screening period; • Have serum ferritin values of ≥100 ng/mL or transferrin saturation of ≥20% during the screening period; and • Have folic acid and vitamin B12 values above standard minimum values during the screening period.
Subjects deemed ineligible for inclusion in the study included those who: • Have anemia due to a cause other than CKD; • Have active bleeding or blood loss; • Have received a red blood cell transfusion; • Have uncontrolled hypertension; • Have active ocular fundus disease or cannot undergo an ocular fundus examination; • Have been diagnosed with cardiovascular disease, malignancy, or hemisiderosis;
Average Hb level at weeks 20 and 24 of the treatment period.
Hb level at each treatment visit; and
The proportion of patients within the target Hb range (above: ≥12.0 g/dL; within: 10.0-12.0 g/dL; below: <10.0 g/dL).
Safety endpoints for this study were defined as follows: • Adverse events (AEs); • Adverse drug reactions; and
Other endpoints for this study were defined as follows: • Iron-related parameters: serum ferritin, transferrin saturation (TSAT), total iron-binding capacity (TIBC), hepcidin, serum iron, and monthly dose of iron by any route of administration (oral and intravenous); and • Red blood cell indices.
Noninferiority: Compound 1 was considered noninferior to Darbepoetin alfa if the 95% confidence interval (CI) lower limit for the difference between Compound 1 and Darbepoetin alfa in the Least Squares (LS) Mean of the average Hb at weeks 20 and 24 was more than or equal to the predefined noninferiority margin of −0.75 g/dL. Difference in LS Mean refers to mixed-model repeated measures (MMRM) with an unstructured covariance matrix within patients.
Subjects were randomized 1:1 to either • Compound 1 with an initial dose of 300 mg/once daily and adjusted to 150-600 mg/once daily; or • Darbepoetin alfa (IV) initial dose is as follows:
The aim is to maintain a Hb level of 10.0-12.0 g/dL throughout the study.
Dose Adjustment Algorithm: • Increases in the dose were not allowed to occur more frequently than once every 4 weeks. Decreases in dose were allowed to occur more frequently. Frequent dose adjustments were avoided. • If the Hb rose rapidly, the dose was reduced. • If the Hb fell below 10.0 g/dL, the dose was increased. • If the Hb level exceeded 12.0 g/dL, the dose was reduced.
All subjects start with an initial dose of 300 mg/day at baseline visit. Dose levels of Compound 1 include 150, 300, 450, and 600 mg. Each subject took his/her first dose of study medication at the investigative site at the baseline visit. Thereafter, study medication was taken once daily on an outpatient basis. […]

[1] = week 52 (LOCF) compared to baseline

**Q.** Which results are given for `O=C(O)CNC(=O)c1ncc(-c2cccc(Cl)c2)cc1O` [Compound 1, Vadadustat]?
**A.** Deaths due to AEs (52 weeks): 2 (1.2) n (%); deaths reported (52 weeks, assessed as not related to study drug): two; LSMean of average Hb, weeks 20 and 24 (HD-CKD patients): 10.61 g/dL; mean Hb level at week 52 (HD-CKD patients): 10.39 g/dL; Difference (VDT-DA) in LSMean of average Hb, weeks 20 and 24 (HD-CKD patients, noninferiority margin −0.75 g/dL): -0.05 g/dL; proportion of patients with Hb levels within the target range of 10.0-12.0 g/dL (baseline): 81.5%; mean MCHC level, change (baseline to week 52): significantly increased; mean MCH level, change (baseline to week 52 (LOCF)): significantly increased; mean MCV level, change (baseline to week 52 (LOCF)): significantly increased; mean RDW, change (baseline to week 52 (LOCF)): significantly decreased; mean hepcidin level, change (baseline to week 52 (LOCF)): significantly decreased; mean total iron-binding capacity (TIBC), change (baseline to week 52 (LOCF)): significantly increased; LSMean Hb levels at week 52, subgroup analysis by patient background (dose adjustment 150-600 mg/day, target range 10.0-12.0 g/dL): maintained within the target range of 10.0-12.0 g/dL irrespective of the patient backgrounds; Adverse drug reaction (human, in vivo, 52 weeks): 18 (11.1) n (%); Cardiovascular event, cardiac failure (AE of special interest) (human, in vivo, 52 weeks): 13 (8.0) n (%); Diarrhea (human, in vivo, 52 weeks): 25 (15.4) n (%); Discontinuation due to AEs (human, in vivo, 52 weeks): 16 (9.9) n (%); Dose reduction or interruption of study drug due to AEs (human, in vivo, 52 weeks): 13 (8.0) n (%); Hyperkalemia (AE of special interest) (human, in vivo, 52 weeks): 1 (0.6) n (%); Malignancy (AE of special interest) (human, in vivo, 52 weeks): 7 (4.3) n (%); Nasopharyngitis (human, in vivo, 52 weeks): 74 (45.7) n (%); Pulmonary hypertension (AE of special interest) (human, in vivo, 52 weeks): 0 (0.0) n (%); Retinal disorder (AE of special interest) (human, in vivo, 52 weeks): 21 (13.0) n (%); Retinal hemorrhage (human, in vivo, 52 weeks): 9.9%; Serious AEs (human, in vivo, 52 weeks): 41 (25.3) n (%); Serious adverse drug reaction (human, in vivo, 52 weeks): 0 (0.0) n (%); Shunt stenosis (human, in vivo, 52 weeks): 23 (14.2) n (%); Subjects with ≥ 1 AE (human, in vivo, 52 weeks): 154 (95.1) n (%); diarrhea (human, in vivo, 52 weeks): 15.4%; incidence of AEs (human, in vivo, 52 weeks): 95.1%; incidence of serious AEs (human, in vivo, 52 weeks): 25.3%; nasopharyngitis (human, in vivo, 52 weeks): 45.7%; shunt stenosis (human, in vivo, 52 weeks): 14.2%; patients with a rapid rise in Hb levels (>2 g/dL/4 weeks) (in vivo): No patients; proportion of patients with an Hb excursion of ≥12 g/dL (in vivo): 25.3%; proportion of patients with an Hb excursion of ≥13 g/dL (in vivo): 3.7%; proportion of patients with Hb levels within the target range of 10.0-12.0 g/dL (week 24): 75.4%; proportion of patients with Hb levels within the target range of 10.0-12.0 g/dL (week 52): 75.7%; TSAT, change [1]: no significant differences; serum ferritin, change [1]: no significant differences; patients maintained within the target Hb range (weeks 24 and 52, dose adjusted per algorithm): approximately 80%
